In ChEMBL document CHEMBL2429757, “Discovery of a novel series of potent non-nucleoside inhibitors of hepatitis C virus NS5B” (J Med Chem, 2013) one finds solubility data, which are given here for one molecule.

A short description of the data set: Thermal aqueous solubility of the compound at pH 6.4 by high throughput assay. The data set is classed as physicochemical. As to conditions: buffer.

Bounds are passed on as bounds.

A word on the solubility: it is the dissolved amount per volume that the medium holds. A high value points to much dissolved substance. As for `COc1c(/C=C/c2ccc(NS(C)(=O)=O)cc2)cc(-c2ccc[nH]c2=O)cc1C(C)(C)C`, the solubility is under 1 µg/mL.
